Data: patent publication US10034861B2 (priority 2016, dated 2018)

Legend:
PDE1B = PDE1B (Homo sapiens (Human), UniProt Q01064); test: PDE1 inhibition assay (PDE1B); type: biochemical; conditions: PDE1B, IC50 (nM), 15 nM tritium labelled cAMP, 1 hr at room temperature, SPA beads
Excerpt: (§1) Table 1 lists the IC50 value for inhibition of PDE1 by the compounds of the invention. […] PDE1 assays are described in the Experimental Section.

PDE1C = PDE1C (Homo sapiens (Human), UniProt Q14123); test: biochemical; conditions: read-out: PDE1C, inhibition at 10 μM
PDE1A = PDE1A (Homo sapiens (Human), UniProt P54750); test: biochemical; type: biochemical; conditions: 15 nM tritium labelled cAMP, 1 hr at room temperature, SPA beads
Excerpt: as §1

Chain of PDE1C (Q14123 whole entry): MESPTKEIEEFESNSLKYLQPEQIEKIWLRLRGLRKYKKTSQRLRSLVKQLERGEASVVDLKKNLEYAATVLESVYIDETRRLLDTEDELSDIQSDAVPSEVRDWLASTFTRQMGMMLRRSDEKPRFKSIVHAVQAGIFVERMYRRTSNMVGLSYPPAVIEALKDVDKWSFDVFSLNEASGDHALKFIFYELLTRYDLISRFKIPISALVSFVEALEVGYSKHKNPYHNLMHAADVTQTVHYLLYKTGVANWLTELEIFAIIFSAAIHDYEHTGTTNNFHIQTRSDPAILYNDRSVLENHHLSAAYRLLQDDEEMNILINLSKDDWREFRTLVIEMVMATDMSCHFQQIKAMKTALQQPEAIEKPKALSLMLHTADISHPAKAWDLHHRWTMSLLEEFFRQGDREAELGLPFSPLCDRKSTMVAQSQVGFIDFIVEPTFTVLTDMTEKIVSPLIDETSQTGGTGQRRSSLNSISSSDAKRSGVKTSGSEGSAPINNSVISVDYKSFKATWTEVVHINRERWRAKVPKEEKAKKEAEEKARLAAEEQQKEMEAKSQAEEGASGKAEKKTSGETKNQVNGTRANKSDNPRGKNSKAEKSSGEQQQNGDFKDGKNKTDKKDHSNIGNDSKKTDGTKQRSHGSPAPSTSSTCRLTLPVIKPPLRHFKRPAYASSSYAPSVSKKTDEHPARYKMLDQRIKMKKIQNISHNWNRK
Chain of PDE1B (Q01064 whole entry): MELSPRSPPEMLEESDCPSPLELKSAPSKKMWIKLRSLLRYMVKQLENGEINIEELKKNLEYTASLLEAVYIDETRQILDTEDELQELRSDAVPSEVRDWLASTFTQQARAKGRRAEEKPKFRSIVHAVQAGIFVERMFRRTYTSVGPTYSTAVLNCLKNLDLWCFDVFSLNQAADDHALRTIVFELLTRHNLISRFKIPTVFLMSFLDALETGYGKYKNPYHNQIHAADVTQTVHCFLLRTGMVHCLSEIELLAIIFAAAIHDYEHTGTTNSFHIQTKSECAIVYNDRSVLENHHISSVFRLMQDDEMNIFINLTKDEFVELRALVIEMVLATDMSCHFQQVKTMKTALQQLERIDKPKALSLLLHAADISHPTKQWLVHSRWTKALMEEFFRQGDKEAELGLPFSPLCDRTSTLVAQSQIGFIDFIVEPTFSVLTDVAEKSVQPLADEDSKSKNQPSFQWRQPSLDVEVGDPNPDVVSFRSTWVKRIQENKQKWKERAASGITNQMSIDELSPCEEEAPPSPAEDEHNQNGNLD
Chain of PDE1A (P54750 whole entry): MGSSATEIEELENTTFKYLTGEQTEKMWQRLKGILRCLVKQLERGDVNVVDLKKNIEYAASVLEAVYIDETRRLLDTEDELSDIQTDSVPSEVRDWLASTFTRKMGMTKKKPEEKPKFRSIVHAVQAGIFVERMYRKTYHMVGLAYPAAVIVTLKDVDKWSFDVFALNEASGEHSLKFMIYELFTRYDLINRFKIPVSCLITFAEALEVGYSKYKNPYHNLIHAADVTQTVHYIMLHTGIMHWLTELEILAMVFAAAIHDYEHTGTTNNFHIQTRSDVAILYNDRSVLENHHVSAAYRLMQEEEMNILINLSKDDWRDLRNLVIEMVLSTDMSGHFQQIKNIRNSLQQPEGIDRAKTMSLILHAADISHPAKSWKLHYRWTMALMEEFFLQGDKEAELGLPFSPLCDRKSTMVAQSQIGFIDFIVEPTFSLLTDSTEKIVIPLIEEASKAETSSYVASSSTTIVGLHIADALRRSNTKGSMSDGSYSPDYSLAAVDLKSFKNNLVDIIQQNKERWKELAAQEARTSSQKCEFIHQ

`CCOc1ncccc1-c1cc(NC(C)c2cnn(C)c2)c2c(cnn2C)n1` (racemic) [Example 15, 5-(2-ethoxypyridin-3-yl)-1-methyl-N-(1-(1-methyl-1H-pyrazol-4-yl)ethyl)-1H-pyrazolo[4,3-b]pyridin-7-amine] gave an IC50 (PDE1B) of 200 nM, an inhibition at 10 µM (PDE1C) of 36% and an IC50 (PDE1A) of 820 nM.
